Data from the NIST ThermoML archive (doi:10.1021/je050050p).

Test: xn = mol fraction of the nth substance listed
Conditions: Liquid, Vibrating tube method

CN(C)C=O [dimethylformamide] + O=C=O
Conditions	mass density [kg/m3]
333 K, 18021 kPa, x2 = 0.4502	942.21
333 K, 19006 kPa, x2 = 0.4502	943.4
333 K, 19008 kPa, x2 = 0.4068	942.75
333 K, 20008 kPa, x2 = 0.4068	943.81
333 K, 20021 kPa, x2 = 0.4502	944.58
333 K, 20981 kPa, x2 = 0.4068	944.88
333 K, 21001 kPa, x2 = 0.4502	945.74
333 K, 22001 kPa, x2 = 0.4068	945.96
333 K, 22027 kPa, x2 = 0.4502	946.9
333 K, 22996 kPa, x2 = 0.4068	947.02
333 K, 23019 kPa, x2 = 0.4502	948.04
333 K, 24013 kPa, x2 = 0.4068	948.07
333 K, 24013 kPa, x2 = 0.4502	949.18
333 K, 25001 kPa, x2 = 0.4068	949.09
333 K, 25015 kPa, x2 = 0.4502	950.28
342.89 K, 10992 kPa, x2 = 0.6235	886.15
342.89 K, 12012 kPa, x2 = 0.6235	889.74
342.89 K, 13020 kPa, x2 = 0.6235	893.05
342.89 K, 14010 kPa, x2 = 0.6235	896.16
342.89 K, 15018 kPa, x2 = 0.6235	899.25
342.89 K, 16005 kPa, x2 = 0.6235	902.14
342.89 K, 17023 kPa, x2 = 0.6235	905.02
342.89 K, 18015 kPa, x2 = 0.6235	907.74
342.89 K, 19032 kPa, x2 = 0.6235	910.42
342.89 K, 20044 kPa, x2 = 0.6235	913.05
342.89 K, 21008 kPa, x2 = 0.6235	915.46
342.89 K, 21997 kPa, x2 = 0.6235	917.87
342.89 K, 23022 kPa, x2 = 0.6235	920.31
342.89 K, 24005 kPa, x2 = 0.6235	922.57
342.89 K, 25050 kPa, x2 = 0.6235	924.92
342.92 K, 9047 kPa, x2 = 0.4268	916.56
342.92 K, 10045 kPa, x2 = 0.4268	917.97
342.92 K, 11042 kPa, x2 = 0.4268	919.28
342.92 K, 12037 kPa, x2 = 0.4268	920.66
342.92 K, 13020 kPa, x2 = 0.4268	921.93
342.92 K, 13997 kPa, x2 = 0.4268	923.27
342.92 K, 14981 kPa, x2 = 0.4268	924.53
342.92 K, 15034 kPa, x2 = 0.9311	711.76
342.92 K, 15061 kPa, x2 = 0.8091	832.64
342.92 K, 15988 kPa, x2 = 0.8091	839.54
342.92 K, 15991 kPa, x2 = 0.4268	925.79
342.92 K, 16002 kPa, x2 = 0.9311	729.81
342.92 K, 17002 kPa, x2 = 0.4268	927.11
342.92 K, 17015 kPa, x2 = 0.9311	745.62
342.92 K, 17027 kPa, x2 = 0.8091	845.55
342.92 K, 18016 kPa, x2 = 0.8091	851.1
342.92 K, 18024 kPa, x2 = 0.9311	759.3
342.92 K, 18025 kPa, x2 = 0.4268	928.36
342.92 K, 19002 kPa, x2 = 0.9311	770.95
342.92 K, 19028 kPa, x2 = 0.8091	856.53
342.92 K, 19044 kPa, x2 = 0.4268	929.6
342.92 K, 19999 kPa, x2 = 0.4268	930.83
342.92 K, 20000 kPa, x2 = 0.9311	781.74
342.92 K, 20057 kPa, x2 = 0.8091	861.77
342.92 K, 20984 kPa, x2 = 0.4268	931.96
342.92 K, 21012 kPa, x2 = 0.8091	866.52
342.92 K, 21034 kPa, x2 = 0.9311	791.87
342.92 K, 21992 kPa, x2 = 0.8091	871.08
342.92 K, 22002 kPa, x2 = 0.4268	933.2
342.92 K, 22002 kPa, x2 = 0.9311	800.53
342.92 K, 22999 kPa, x2 = 0.8091	875.54
342.92 K, 23014 kPa, x2 = 0.9311	809.02
342.92 K, 23042 kPa, x2 = 0.4268	934.44
342.92 K, 23981 kPa, x2 = 0.4268	935.53
342.92 K, 24017 kPa, x2 = 0.9311	816.82
342.92 K, 24029 kPa, x2 = 0.8091	879.9
342.92 K, 25008 kPa, x2 = 0.9311	824.06
342.92 K, 25020 kPa, x2 = 0.8091	883.99
342.92 K, 25047 kPa, x2 = 0.4268	936.75
342.93 K, 7012 kPa, x2 = 0.2876	914.85
342.93 K, 7999 kPa, x2 = 0.2876	915.95
342.93 K, 9007 kPa, x2 = 0.2876	917.04
342.93 K, 10005 kPa, x2 = 0.2876	918.13
342.93 K, 11003 kPa, x2 = 0.2876	919.16
342.93 K, 12011 kPa, x2 = 0.2876	920.23
342.93 K, 13016 kPa, x2 = 0.2876	921.27
342.93 K, 14012 kPa, x2 = 0.2876	922.31
342.93 K, 15013 kPa, x2 = 0.2876	923.35
342.93 K, 16000 kPa, x2 = 0.2876	924.33
342.93 K, 17024 kPa, x2 = 0.2876	925.34
342.93 K, 18001 kPa, x2 = 0.2876	926.31
342.93 K, 19036 kPa, x2 = 0.2876	927.32
342.93 K, 20015 kPa, x2 = 0.2876	928.27
342.93 K, 21009 kPa, x2 = 0.2876	929.23
